Test results: patent US7981903B2, “2-[2-{phenylamino}-1H-pyrrolo[2,3-D]pyrimidin-4-yl)amino] benzamide derivatives as IGF-1R inhibitors for the treatment of cancer” (GlaxoSmithKline LLC, priority 2007, dated 2011)
Where “and” joins values, the source holds several entries; their conditions need not be identical. Equal values may be shown once.

Legend:
ALK = ALK (Homo sapiens, UniProt Q9UM73); assay: ALK enzyme assay (HTRF); format: biochemical; details: 0.25 nM ALK, 15.0 μM ATP, values given as pIC50 category
ALK, sequence (Q9UM73 19-1620): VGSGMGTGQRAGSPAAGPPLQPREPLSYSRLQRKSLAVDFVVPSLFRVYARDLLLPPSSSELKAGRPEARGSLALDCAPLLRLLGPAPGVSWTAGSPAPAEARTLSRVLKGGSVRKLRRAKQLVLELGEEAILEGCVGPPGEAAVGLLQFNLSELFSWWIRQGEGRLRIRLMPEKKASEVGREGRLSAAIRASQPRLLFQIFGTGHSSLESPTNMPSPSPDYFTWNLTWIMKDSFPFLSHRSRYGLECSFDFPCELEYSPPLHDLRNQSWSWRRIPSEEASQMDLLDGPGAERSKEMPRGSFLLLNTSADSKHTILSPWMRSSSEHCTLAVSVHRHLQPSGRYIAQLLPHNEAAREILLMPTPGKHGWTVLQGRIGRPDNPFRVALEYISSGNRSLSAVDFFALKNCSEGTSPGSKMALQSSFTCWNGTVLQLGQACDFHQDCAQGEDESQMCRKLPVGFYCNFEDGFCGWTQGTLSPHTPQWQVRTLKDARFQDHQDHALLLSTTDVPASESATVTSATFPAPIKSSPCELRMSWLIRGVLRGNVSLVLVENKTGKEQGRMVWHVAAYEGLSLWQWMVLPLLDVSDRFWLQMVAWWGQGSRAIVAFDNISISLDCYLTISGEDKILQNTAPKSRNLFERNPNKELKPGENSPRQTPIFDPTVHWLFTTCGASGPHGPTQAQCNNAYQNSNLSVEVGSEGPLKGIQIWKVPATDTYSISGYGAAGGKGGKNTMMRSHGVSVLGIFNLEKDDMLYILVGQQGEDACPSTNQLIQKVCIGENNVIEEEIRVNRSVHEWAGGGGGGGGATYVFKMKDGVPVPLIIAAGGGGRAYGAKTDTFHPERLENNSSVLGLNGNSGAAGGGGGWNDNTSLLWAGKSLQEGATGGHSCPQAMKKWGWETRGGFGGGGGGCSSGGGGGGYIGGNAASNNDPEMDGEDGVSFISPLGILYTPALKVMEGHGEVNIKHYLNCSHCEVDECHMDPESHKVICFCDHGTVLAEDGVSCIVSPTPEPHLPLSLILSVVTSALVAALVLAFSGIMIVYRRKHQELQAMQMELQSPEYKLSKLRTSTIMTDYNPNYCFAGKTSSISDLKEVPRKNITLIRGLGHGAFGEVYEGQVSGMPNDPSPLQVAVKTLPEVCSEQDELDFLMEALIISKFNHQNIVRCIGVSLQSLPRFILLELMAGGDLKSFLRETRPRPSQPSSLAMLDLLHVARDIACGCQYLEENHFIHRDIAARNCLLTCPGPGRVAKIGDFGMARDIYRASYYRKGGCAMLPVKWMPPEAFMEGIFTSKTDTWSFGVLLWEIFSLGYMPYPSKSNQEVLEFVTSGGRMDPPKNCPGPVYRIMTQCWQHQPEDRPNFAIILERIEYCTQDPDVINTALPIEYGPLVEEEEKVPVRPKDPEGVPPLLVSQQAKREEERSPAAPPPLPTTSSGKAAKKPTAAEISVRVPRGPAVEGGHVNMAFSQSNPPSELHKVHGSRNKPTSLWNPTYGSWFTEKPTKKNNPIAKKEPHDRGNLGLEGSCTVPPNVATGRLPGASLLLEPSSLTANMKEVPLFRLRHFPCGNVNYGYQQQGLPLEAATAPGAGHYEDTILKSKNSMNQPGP
How it was run: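 Final compound range 0.00017 to 10 μM (twelve 1:3 dilutions). Kinase reaction with ATP and biotinylated synthetic peptide runs 120 min at 20° C, stopped with EDTA; phosphotyrosine detected by HTRF after 60 min. Inhibition referenced to DMSO (1%) and EDTA (0.1 M) controls, curve-fitted.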

[1] = target: T1, NIH-3T3 cells overexpressing human IGF-1R (Homo sapiens, UniProt P08069); assay: IGF-1R cellular autophosphorylation (DELFIA); format: cell-based
T1 construct: expressed in transfected cells; host or cells: NIH-3T3 (mouse fibroblasts)
T1 sequence (P08069 31-1367): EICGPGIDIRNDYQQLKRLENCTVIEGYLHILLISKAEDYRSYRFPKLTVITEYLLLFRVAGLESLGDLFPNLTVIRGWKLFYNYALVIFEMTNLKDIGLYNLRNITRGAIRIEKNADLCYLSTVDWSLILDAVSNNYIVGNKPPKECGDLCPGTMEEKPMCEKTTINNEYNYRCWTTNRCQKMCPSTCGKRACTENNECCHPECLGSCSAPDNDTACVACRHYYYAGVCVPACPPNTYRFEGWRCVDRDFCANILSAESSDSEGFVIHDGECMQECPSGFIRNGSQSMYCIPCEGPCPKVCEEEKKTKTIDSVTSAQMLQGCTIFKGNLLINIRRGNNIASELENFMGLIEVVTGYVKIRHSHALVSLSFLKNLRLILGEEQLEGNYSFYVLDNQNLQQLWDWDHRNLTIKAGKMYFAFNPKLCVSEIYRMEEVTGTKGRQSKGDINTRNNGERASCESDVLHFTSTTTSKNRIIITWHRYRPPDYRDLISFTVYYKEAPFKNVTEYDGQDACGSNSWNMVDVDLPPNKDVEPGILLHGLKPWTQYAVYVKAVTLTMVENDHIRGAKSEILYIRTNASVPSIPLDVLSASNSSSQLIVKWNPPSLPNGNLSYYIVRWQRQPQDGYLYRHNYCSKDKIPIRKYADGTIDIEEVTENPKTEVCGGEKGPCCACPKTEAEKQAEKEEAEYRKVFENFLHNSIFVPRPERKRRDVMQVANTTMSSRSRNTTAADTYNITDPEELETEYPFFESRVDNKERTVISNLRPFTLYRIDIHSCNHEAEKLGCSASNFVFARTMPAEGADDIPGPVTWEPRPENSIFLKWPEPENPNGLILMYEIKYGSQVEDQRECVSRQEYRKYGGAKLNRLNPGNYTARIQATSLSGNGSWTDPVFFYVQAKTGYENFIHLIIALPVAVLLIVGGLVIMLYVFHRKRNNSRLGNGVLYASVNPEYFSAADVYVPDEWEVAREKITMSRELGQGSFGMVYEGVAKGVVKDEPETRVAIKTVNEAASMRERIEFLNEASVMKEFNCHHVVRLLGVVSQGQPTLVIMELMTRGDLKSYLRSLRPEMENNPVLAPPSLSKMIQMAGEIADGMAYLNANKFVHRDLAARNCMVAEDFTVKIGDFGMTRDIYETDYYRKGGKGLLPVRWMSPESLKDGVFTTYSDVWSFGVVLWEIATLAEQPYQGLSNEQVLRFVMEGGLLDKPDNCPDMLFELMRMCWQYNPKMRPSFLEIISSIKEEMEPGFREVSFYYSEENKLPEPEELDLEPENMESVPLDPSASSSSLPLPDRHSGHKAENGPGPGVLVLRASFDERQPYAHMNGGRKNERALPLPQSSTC
How it was run: (§1)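 Receptor autophosphorylation measured by DELFIA, capturing IGF-1R or IRβ and detecting with europium anti-pTyr, reported as percent of IGF-1- or insulin-stimulated signal. Compounds (30 uM to 1.5 nM) added 2 h before ligand, then 15 min stimulation (IGF-1 30 ng/ml or insulin 3 ug/ml).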

NCI-H929 = assay: Inhibition of cell proliferation (CellTiter-Glo or InCell analyzer), NCI-H929; format: cell-based; details: Homo sapiens, 72 h / 3 days, values given as IC50 category
How it was run: In one

[2] = target: T2, NIH-3T3 cells overexpressing human IR (Homo sapiens, UniProt P06213); assay: IR cellular autophosphorylation (DELFIA); format: cell-based; details: 2 h compound, insulin 3 ug/ml for 15 minutes, IC50 category
T2 construct: expressed in transfected cells; host or cells: NIH-3T3 (mouse fibroblasts)
T2 sequence (P06213 28-1382): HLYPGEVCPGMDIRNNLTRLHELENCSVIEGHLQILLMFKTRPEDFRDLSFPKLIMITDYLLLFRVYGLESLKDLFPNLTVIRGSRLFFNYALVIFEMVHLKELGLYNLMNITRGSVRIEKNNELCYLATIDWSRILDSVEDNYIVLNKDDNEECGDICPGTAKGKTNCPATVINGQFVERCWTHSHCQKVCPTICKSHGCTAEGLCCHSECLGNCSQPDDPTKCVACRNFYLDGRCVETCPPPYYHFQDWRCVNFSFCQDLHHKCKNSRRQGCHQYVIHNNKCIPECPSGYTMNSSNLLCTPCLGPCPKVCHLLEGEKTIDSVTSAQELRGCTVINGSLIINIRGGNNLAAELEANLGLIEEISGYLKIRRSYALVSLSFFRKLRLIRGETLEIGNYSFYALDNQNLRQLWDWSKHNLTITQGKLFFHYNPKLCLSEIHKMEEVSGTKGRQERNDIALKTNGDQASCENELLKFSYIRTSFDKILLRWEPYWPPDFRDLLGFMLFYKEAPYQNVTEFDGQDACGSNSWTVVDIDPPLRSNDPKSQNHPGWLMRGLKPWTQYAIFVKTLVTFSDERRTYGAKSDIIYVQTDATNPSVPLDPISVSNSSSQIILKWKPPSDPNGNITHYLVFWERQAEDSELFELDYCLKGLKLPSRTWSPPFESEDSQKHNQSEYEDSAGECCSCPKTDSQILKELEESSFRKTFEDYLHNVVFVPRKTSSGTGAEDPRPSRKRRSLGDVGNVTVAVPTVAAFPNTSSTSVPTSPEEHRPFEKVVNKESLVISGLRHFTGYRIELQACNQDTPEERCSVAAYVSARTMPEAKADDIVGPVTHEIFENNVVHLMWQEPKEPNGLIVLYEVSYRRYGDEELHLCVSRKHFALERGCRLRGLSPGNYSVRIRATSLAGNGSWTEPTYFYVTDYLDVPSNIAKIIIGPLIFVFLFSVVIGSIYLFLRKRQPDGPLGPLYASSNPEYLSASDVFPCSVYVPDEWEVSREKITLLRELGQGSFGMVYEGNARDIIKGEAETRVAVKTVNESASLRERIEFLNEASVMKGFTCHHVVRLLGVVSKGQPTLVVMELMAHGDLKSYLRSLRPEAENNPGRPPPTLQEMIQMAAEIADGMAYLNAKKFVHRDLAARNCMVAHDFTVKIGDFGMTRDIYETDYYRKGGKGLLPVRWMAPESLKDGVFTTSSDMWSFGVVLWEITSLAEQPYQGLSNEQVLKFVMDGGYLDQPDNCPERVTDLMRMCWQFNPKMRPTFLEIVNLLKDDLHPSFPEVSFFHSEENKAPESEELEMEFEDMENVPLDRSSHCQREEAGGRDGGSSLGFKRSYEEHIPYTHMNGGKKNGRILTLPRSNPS
How it was run: as §1

| SMILES | IC50 (ALK) | IC50 [1] [nM] | IC50 (NCI-H929) [nM] | IC50 [2] [nM] |
| --- | --- | --- | --- | --- |
| COc1cc(N2CCN(C(C)C)CC2)c(F)cc1Nc1nc(Nc2cccc(F)c2C(N)=O)c2cc[nH]c2n1 [Example 48, 2-fluoro-6-[(2-{[5-fluoro-4-[4-(1-methylethyl)-1-piperazinyl]-2-(methyloxy)phenyl]amino}-1H-pyrrolo[2,3-d]pyrimidin-4-yl)amino]benzamide] | 0.251 to 1 nM | 100 to 500 | < 250 | < 100 |
| CNCC(=O)N1CCc2cc(OC)c(Nc3nc(Nc4cccc(F)c4C(N)=O)c4cc[nH]c4n3)cc21 [Example 142, 2-fluoro-6-[(2-{[1-(N-methylglycyl)-5-(methyloxy)-2,3-dihydro-1H-indol-6-yl]amino}-1H-pyrrolo[2,3-d]pyrimidin-4-yl)amino]benzamide] | 1.26 to 3.98 nM | < 100 | 250 to 1000 | 100 to 500 |
| COc1cc2c(cc1Nc1nc(Nc3cccc(F)c3C(=O)NCC(C)C)c3cc[nH]c3n1)N(C(=O)CN(C)C)CC2 [Example 157, 2-[(2-{[1-(N,N-dimethylglycyl)-5-(methyloxy)-2,3-dihydro-1H-indol-6-yl]amino}-1H-pyrrolo[2,3-d]pyrimidin-4-yl)amino]-6-fluoro-N-(2-methylpropyl)benzamide] | 1.26 to 3.98 nM | 100 to 500 | 250 to 1000 | 100 to 500 |
| COc1cc(N2CCN(CCS(C)(=O)=O)CC2)c(C)cc1Nc1nc(Nc2cccc(F)c2C(N)=O)c2cc[nH]c2n1 [Example 52, 2-fluoro-6-({2-[(5-methyl-2-(methyloxy)-4-{4-[2-(methylsulfonyl)ethyl]-1-piperazinyl}phenyl)amino]-1H-pyrrolo[2,3-d]pyrimidin-4-yl}amino)benzamide] | 1.26 to 3.98 nM | < 100 | 250 to 1000 | > 500 |
| CCN(CCO)CC(=O)N1CCc2cc(OC)c(Nc3nc(Nc4cccc(F)c4C(N)=O)c4cc[nH]c4n3)cc21 [Example 177, 2-[(2-{[1-[N-ethyl-N-(2-hydroxyethyl)glycyl]-5-(methyloxy)-2,3-dihydro-1H-indol-6-yl]amino}-1H-pyrrolo[2,3-d]pyrimidin-4-yl)amino]-6-fluorobenzamide] | 1.26 to 3.98 nM | 100 to 500 | 250 to 1000 | 100 to 500 |
| CCCN(C)CC(=O)N1CCc2cc(OC)c(Nc3nc(Nc4cccc(F)c4C(=O)NC)c4cc[nH]c4n3)cc21 [Example 167, 2-fluoro-N-methyl-6-[(2-{[5-(methyloxy)-1-(N-methyl-N-propylglycyl)-2,3-dihydro-1H-indol-6-yl]amino}-1H-pyrrolo[2,3-d]pyrimidin-4-yl)amino]benzamide] | 1.26 to 3.98 nM and 0.251 to 1 nM | 100 to 500 | < 250 | 100 to 500 |
| COc1cc2c(cc1Nc1nc(Nc3ccc(F)c(F)c3C(N)=O)c3cc[nH]c3n1)N(C(=O)CN(C)C)CCC2 [Example 162, 6-[(2-{[1-(N,N-dimethylglycyl)-6-(methyloxy)-1,2,3,4-tetrahydro-7-quinolinyl]amino}-1H-pyrrolo[2,3-d]pyrimidin-4-yl)amino]-2,3-difluorobenzamide] | 1.26 to 3.98 nM | < 100 | < 250 | < 100 |
| CCCN1CCC=C(c2ccc(Nc3nc(Nc4cc(F)ccc4C(N)=O)c4cc[nH]c4n3)c(OC)c2)C1 [Example 70, 4-fluoro-2-[(2-{[2-(methyloxy)-4-(1-propyl-1,2,5,6-tetrahydro-3-pyridinyl)phenyl]amino}-1H-pyrrolo[2,3-d]pyrimidin-4-yl)amino]benzamide] | 0.251 to 1 nM | < 100 | < 250 | < 100 |
| COc1c(Nc2nc(Nc3cccc(F)c3C(N)=O)c3cc[nH]c3n2)ccc(N2CCN(C(C)C)CC2)c1F [Example 51, 2-fluoro-6-[(2-{[3-fluoro-4-[4-(1-methylethyl)-1-piperazinyl]-2-(methyloxy)phenyl]amino}-1H-pyrrolo[2,3-d]pyrimidin-4-yl)amino]benzamide] | 1.26 to 3.98 nM | > 500 | 250 to 1000 | > 500 |
| COc1cc(N2CCCN(C)CC2)ccc1Nc1nc(Nc2cccc(F)c2C(N)=O)c2cc[nH]c2n1 [Example 209, 2-fluoro-6-[(2-{[4-(4-methylhexahydro-1H-1,4-diazepin-1-yl)-2-(methyloxy)phenyl]amino}-1H-pyrrolo[2,3-d]pyrimidin-4-yl)amino]benzamide] | 0.251 to 1 nM | 100 to 500 | < 250 | 100 to 500 |
| COc1cc(N2CCOCC2)ccc1Nc1nc(Nc2cc(F)ccc2C(N)=O)c2cc[nH]c2n1 [Example 83, 4-fluoro-2-[(2-{[2-(methyloxy)-4-(4-morpholinyl)phenyl]amino}-1H-pyrrolo[2,3-d]pyrimidin-4-yl)amino]benzamide] | 5.01 to 200 nM | < 100 | 250 to 1000 | < 100 |
| CCCN1CCC(c2ccc(Nc3nc(Nc4cc(F)ccc4C(N)=O)c4cc[nH]c4n3)c(OC)c2)CC1 [Example 73, 4-fluoro-2-[(2-{[2-(methyloxy)-4-(1-propyl-4-piperidinyl)phenyl]amino}-1H-pyrrolo[2,3-d]pyrimidin-4-yl)amino]benzamide] | 0.251 to 1 nM | < 100 | < 250 | < 100 |
| CCCN1CCC(COc2ccc(Nc3nc(Nc4cccc(F)c4C(N)=O)c4cc[nH]c4n3)c(OC)c2)CC1 [Example 206, 2-fluoro-6-({2-[(2-(methyloxy)-4-{[(1-propyl-4-piperidinyl)methyl]oxy}phenyl)amino]-1H-pyrrolo[2,3-d]pyrimidin-4-yl}amino)benzamide] | 1.26 to 3.98 nM | 100 to 500 | < 250 | 100 to 500 |
| COc1cc2c(cc1Nc1nc(Nc3cc(F)cc(F)c3C(N)=O)c3cc[nH]c3n1)CN(CCF)CC2 [Example 239, 2,4-difluoro-6-[(2-{[2-(2-fluoroethyl)-6-(methyloxy)-1,2,3,4-tetrahydro-7-isoquinolinyl]amino}-1H-pyrrolo[2,3-d]pyrimidin-4-yl)amino]benzamide] | 1.26 to 3.98 nM | > 500 | 250 to 1000 | > 500 |
| CNC(=O)c1c(F)cccc1Nc1nc(Nc2cc3c(cc2OC)CCCN3C(=O)CN(C)C)nc2[nH]ccc12 [Example 212, 2-[(2-{[1-(N,N-dimethylglycyl)-6-(methyloxy)-1,2,3,4-tetrahydro-7-quinolinyl]amino}-1H-pyrrolo[2,3-d]pyrimidin-4-yl)amino]-6-fluoro-N-methylbenzamide] | 1.26 to 3.98 nM | 100 to 500 | < 250 | 100 to 500 |
| COc1cc(N2CCN(CC3CC3)CC2)ccc1Nc1nc(Nc2cc(F)ccc2C(N)=O)c2cc[nH]c2n1 [Example 81, 2-[(2-{[4-[4-(cyclopropylmethyl)-1-piperazinyl]-2-(methyloxy)phenyl]amino}-1H-pyrrolo[2,3-d]pyrimidin-4-yl)amino]-4-fluorobenzamide] | 0.251 to 1 nM | < 100 | < 250 | 100 to 500 |
| COc1cc2c(cc1Nc1nc(Nc3cccc(F)c3C(N)=O)c3cc[nH]c3n1)CCN2C(=O)CN(C)C [Example 197, 2-[(2-{[1-(N,N-dimethylglycyl)-6-(methyloxy)-2,3-dihydro-1H-indol-5-yl]amino}-1H-pyrrolo[2,3-d]pyrimidin-4-yl)amino]-6-fluorobenzamide] | 1.26 to 3.98 nM | 100 to 500 | < 250 | > 500 |
| CNC(=O)c1c(F)cc(Cl)cc1Nc1nc(Nc2cc3c(cc2OC)CCCN3C(=O)CN2CCCC2)nc2[nH]ccc12 [Example 174, 4-chloro-2-fluoro-N-methyl-6-[(2-{[6-(methyloxy)-1-(1-pyrrolidinylacetyl)-1,2,3,4-tetrahydro-7-quinolinyl]amino}-1H-pyrrolo[2,3-d]pyrimidin-4-yl)amino]benzamide] | 1.26 to 3.98 nM | 100 to 500 | 250 to 1000 | 100 to 500 |
| CCCN1CCCC(c2ccc(Nc3nc(Nc4cc(F)ccc4C(N)=O)c4cc[nH]c4n3)c(OC)c2)C1 (stereo not shown) [Example 71, 4-fluoro-2-[(2-{[2-(methyloxy)-4-(1-propyl-3-piperidinyl)phenyl]amino}-1H-pyrrolo[2,3-d]pyrimidin-4-yl)amino]benzamide] | 0.251 to 1 nM | < 100 | < 250 | 100 to 500 |
| CNC(=O)c1c(F)cccc1Nc1nc(Nc2cc3c(cc2OC)CCN3C(=O)CN2CCCC2)nc2[nH]ccc12 [Example 139, 2-fluoro-N-methyl-6-[(2-{[5-(methyloxy)-1-(1-pyrrolidinylacetyl)-2,3-dihydro-1H-indol-6-yl]amino}-1H-pyrrolo[2,3-d]pyrimidin-4-yl)amino]benzamide] | 0.251 to 1 nM | < 100 | < 250 | 100 to 500 |
| COc1cc2c(cc1Nc1nc(Nc3cc(F)cc(F)c3C(=O)NC(C)C)c3cc[nH]c3n1)N(C(=O)CN(C)C)CC2 [Example 153, 2-[(2-{[1-(N,N-dimethylglycyl)-5-(methyloxy)-2,3-dihydro-1H-indol-6-yl]amino}-1H-pyrrolo[2,3-d]pyrimidin-4-yl)amino]-4,6-difluoro-N-(1-methylethyl)benzamide] | 0.251 to 1 nM | 100 to 500 | > 1000 | > 500 |
| COc1cc2c(cc1Nc1nc(Nc3cccc(F)c3C(N)=O)c3cc[nH]c3n1)CN(C(C)C)CC2 [Example 236, 2-fluoro-6-[(2-{[2-(1-methylethyl)-6-(methyloxy)-1,2,3,4-tetrahydro-7-isoquinolinyl]amino}-1H-pyrrolo[2,3-d]pyrimidin-4-yl)amino]benzamide] | 1.26 to 3.98 nM | 100 to 500 | < 250 | 100 to 500 |
